Target: T1, hGIP-R (Homo sapiens, UniProt P48546)
T1 construct: expressed in transfected cells; host or cells: HEK-293 clonal cell lines
T1 sequence (P48546 22-466): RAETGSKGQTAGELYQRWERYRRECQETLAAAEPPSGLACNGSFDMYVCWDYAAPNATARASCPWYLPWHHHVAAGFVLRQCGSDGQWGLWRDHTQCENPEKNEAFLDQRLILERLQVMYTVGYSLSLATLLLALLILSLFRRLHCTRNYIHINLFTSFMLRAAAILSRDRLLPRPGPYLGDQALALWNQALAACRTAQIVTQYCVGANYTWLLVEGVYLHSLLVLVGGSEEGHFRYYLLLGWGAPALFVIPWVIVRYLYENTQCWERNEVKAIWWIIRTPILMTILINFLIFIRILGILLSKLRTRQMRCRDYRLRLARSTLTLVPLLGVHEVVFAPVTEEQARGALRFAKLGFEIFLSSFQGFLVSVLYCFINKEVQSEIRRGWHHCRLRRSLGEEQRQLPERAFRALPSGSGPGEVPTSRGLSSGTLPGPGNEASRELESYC
Experiment: Functional hGIP-R Assay (cAMP formation, HTRF)
Assay type: cell-based
Details: for Emax: cAMP efficacy, percent of maximal response to GIP(1-42)OH, 37° C., 0.1% bovine casein, arithmetic mean ± SEM; for EC50: cAMP potency, HEK-293 cells expressing hGIP-R, incubated at 37° C. in the presence of 0.1% bovine casein, geometric mean, read-out: Human GIP-R EC50, nM (SEM, n)
Summary of the method: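 HEK-293 cells expressing hGIP-R were given a 20-point compound series in DMEM with 0.1% casein, 250 μM IBMX, 1% DMSO, 30 min at 37 °C. cAMP was read by HTRF against a standard curve, expressed as % of human GIP (1-42) OH maximum; EC50 and Emax came from four-parameter fits.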

Row | Emax | EC50 | SMILES
1 | 74.9 ± 11.6% | 104 nM | Cn1cc2cc(-c3ccc([C@H]4C[C@@]45CCN([C@H](Cc4cnn(C(F)F)c4)C(=O)NC(C)(C)Cn4nc(C(F)(F)F)cc4-c4cc(C(F)(F)F)c(=O)n(C)c4)C5=O)cc3)cnc2n1 [Example 130, (R)-3-(1-(Difluoromethyl)-1H-pyrazol-4-yl)-N-(2-methyl-1-(5-(1-methyl-6-oxo-5-(trifluoromethyl)-1,6-dihydropyridin-3-yl)-3-(trifluoromethyl)-1H-pyrazol-1-yl)propan-2-yl)-2-((1R,3R)-1-(4-(2-methyl-2H-pyrazolo[3,4-b]pyridin-5-yl)phenyl)-4-oxo-5-azaspiro[2.4]heptan-5-yl)propanamide]
2 | 57.9 ± 4.24% | 17.7 nM | Cn1cc2cc(-c3ccc([C@H]4C[C@@]45CCN([C@H](Cc4cnn(C(F)F)c4)C(=O)NC(C)(C)Cn4nc(C(F)(F)F)cc4-c4cc(F)c6nccn6c4)C5=O)cc3)cnc2n1 [Example 131, (R)-3-(1-(Difluoromethyl)-1H-pyrazol-4-yl)-N-(1-(5-(8-fluoroimidazo[1,2-a]pyridin-6-yl)-3-(trifluoromethyl)-1H-pyrazol-1-yl)-2-methylpropan-2-yl)-2-((1R,3R)-1-(4-(2-methyl-2H-pyrazolo[3,4-b]pyridin-5-yl)phenyl)-4-oxo-5-azaspiro[2.4]heptan-5-yl)propanamide]
3 | 78.4 ± 3.18% | 13.7 nM | Cn1cc2cc(-c3ccc([C@H]4C[C@@]45CCN([C@H](Cc4cnn(C(F)F)c4)C(=O)NC(C)(C)Cn4nc(C(F)(F)F)cc4-c4cn(C)c(=O)c6ccnn46)C5=O)cc3)cnc2n1 [Example 133, (R)-3-(1-(Difluoromethyl)-1H-pyrazol-4-yl)-N-(2-methyl-1-(5-(5-methyl-4-oxo-4,5-dihydropyrazolo[1,5-a]pyrazin-7-yl)-3-(trifluoromethyl)-1H-pyrazol-1-yl)propan-2-yl)-2-((1R,3R)-1-(4-(2-methyl-2H-pyrazolo[3,4-b]pyridin-5-yl)phenyl)-4-oxo-5-azaspiro[2.4]heptan-5-yl)propanamide]
4 | 48.5 ± 2.32% | 5.61 nM | CN(C)Cc1ccc(-c2cc(C(F)(F)F)nn2CC(C)(C)NC(=O)[C@@H](Cc2cnn(C(F)F)c2)N2CC[C@@]3(C[C@@H]3c3ccc(-c4cnc5nn(C)cc5c4)cc3F)C2=O)cn1 [Example 135, (R)-3-(1-(Difluoromethyl)-1H-pyrazol-4-yl)-N-(1-(5-(6-((dimethylamino)methyl)pyridin-3-yl)-3-(trifluoromethyl)-1H-pyrazol-1-yl)-2-methylpropan-2-yl)-2-((1S,3R)-1-(2-fluoro-4-(2-methyl-2H-pyrazolo[3,4-b]pyridin-5-yl)phenyl)-4-oxo-5-azaspiro[2.4]heptan-5-yl)propanamide]

The remaining lines, values behind:

Row | SMILES | Emax | EC50
5 | Cn1cc2cc(-c3ccc([C@H]4C[C@@]45CCN([C@H](Cc4cnn(C(F)F)c4)C(=O)NC(C)(C)Cn4nc(C(F)(F)F)cc4-c4cn(C)c(=O)c6ccccc46)C5=O)cc3)cnc2n1 [Example 129, (R)-3-(1-(Difluoromethyl)-1H-pyrazol-4-yl)-N-(2-methyl-1-(5-(2-methyl-1-oxo-1,2-dihydroisoquinolin-4-yl)-3-(trifluoromethyl)-1H-pyrazol-1-yl)propan-2-yl)-2-((1R,3R)-1-(4-(2-methyl-2H-pyrazolo[3,4-b]pyridin-5-yl)phenyl)-4-oxo-5-azaspiro[2.4]heptan-5-yl)propanamide] | 78.6 ± 6.28% | 138 nM
6 | Cn1cc2cc(-c3ccc([C@H]4C[C@@]45CCN([C@H](Cc4cnn(C(F)F)c4)C(=O)NC(C)(C)Cn4nc(C(F)(F)F)cc4-c4ccc(C(N)=O)[nH]c4=O)C5=O)cc3)cnc2n1 [Example 132, 5-(1-(2-((R)-3-(1-(Difluoromethyl)-1H-pyrazol-4-yl)-2-((1R,3R)-1-(4-(2-methyl-2H-pyrazolo[3,4-b]pyridin-5-yl)phenyl)-4-oxo-5-azaspiro[2.4]heptan-5-yl)propanamido)-2-methylpropyl)-3-(trifluoromethyl)-1H-pyrazol-5-yl)-6-oxo-1,6-dihydropyridine-2-carboxamide] | 93.3 ± 0.0968% | 20.3 nM
7 | Cn1cc2cc(-c3ccc([C@H]4C[C@@]45CCN([C@H](Cc4cnn(C(F)F)c4)C(=O)NC(C)(C)Cn4nc(C(F)(F)F)cc4-c4ccn(C(F)F)c(=O)c4)C5=O)c(F)c3)cnc2n1 [Example 134, (R)-3-(1-(Difluoromethyl)-1H-pyrazol-4-yl)-N-(1-(5-(1-(difluoromethyl)-2-oxo-1,2-dihydropyridin-4-yl)-3-(trifluoromethyl)-1H-pyrazol-1-yl)-2-methylpropan-2-yl)-2-((1S,3R)-1-(2-fluoro-4-(2-methyl-2H-pyrazolo[3,4-b]pyridin-5-yl)phenyl)-4-oxo-5-azaspiro[2.4]heptan-5-yl)propanamide] | 57.4 ± 0.103% | 7.63 nM
8 | [2H]C([2H])([2H])N(C(=O)[C@H]1C[C@@H]1c1ccc(-c2cnc3nn(C)cc3c2)nc1C(F)(F)F)[C@H](Cc1cnn(C(F)F)c1)C(=O)NC(C)(C)Cn1nc(C(F)(F)F)cc1-c1cc(F)c(=O)n(C)c1 [Example 136, (1S,2S)-N—((R)-3-(1-(Difluoromethyl)-1H-pyrazol-4-yl)-1-((1-(5-(5-fluoro-1-methyl-6-oxo-1,6-dihydropyridin-3-yl)-3-(trifluoromethyl)-1H-pyrazol-1-yl)-2-methylpropan-2-yl)amino)-1-oxopropan-2-yl)-N-(methyl-d3)-2-(6-(2-methyl-2H-pyrazolo[3,4-b]pyridin-5-yl)-2-(trifluoromethyl)pyridin-3-yl)cyclopropane-1-carboxamide] | 74.6 ± 6.02% | 10.8 nM
9 | [2H]C([2H])([2H])N(C(=O)[C@H]1C[C@@H]1c1ccc(-c2cnc3nn(C)cc3c2)nc1C(F)F)[C@H](Cc1cnn(C(F)F)c1)C(=O)NC(C)(C)Cn1nc(C(F)(F)F)cc1-c1cc(F)c(=O)n(C)c1 [Example 137, (1S,2S)-N-((R)-3-(1-(Difluoromethyl)-1H-pyrazol-4-yl)-1-((1-(5-(5-fluoro-1-methyl-6-oxo-1,6-dihydropyridin-3-yl)-3-(trifluoromethyl)-1H-pyrazol-1-yl)-2-methylpropan-2-yl)amino)-1-oxopropan-2-yl)-2-(2-(difluoromethyl)-6-(2-methyl-2H-pyrazolo[3,4-b]pyridin-5-yl)pyridin-3-yl)-N-(methyl-d3)cyclopropane-1-carboxamide] | 61.7 ± 1.34% | 12.3 nM
10 | [2H]C([2H])([2H])N(C(=O)[C@H]1C[C@@H]1c1ccc(-c2cnc3nn(C)cc3c2)nc1C(F)F)[C@@H](Cc1cnn(C(F)F)c1)C(=O)NC(C)(C)Cn1nc(C(F)(F)F)cc1-c1cc(F)c(=O)n(C)c1 [Example 138, (1S,2S)-N-((S)-3-(1-(Difluoromethyl)-1H-pyrazol-4-yl)-1-((1-(5-(5-fluoro-1-methyl-6-oxo-1,6-dihydropyridin-3-yl)-3-(trifluoromethyl)-1H-pyrazol-1-yl)-2-methylpropan-2-yl)amino)-1-oxopropan-2-yl)-2-(2-(difluoromethyl)-6-(2-methyl-2H-pyrazolo[3,4-b]pyridin-5-yl)pyridin-3-yl)-N-(methyl-d3)cyclopropane-1-carboxamide] | 52.3% | 99.2 nM
